Here are results for one substance from article PMC3025705 (European journal of nuclear medicine and molecular imaging, 2010).

This experiment concerns human sst2 receptor. Briefly: Immunofluorescence microscopy based sst2 internalization assay. Type of experiment: cell-based. As to conditions: HEK-sst2 cells, 30 min at 37°C, 10 nM.

With Tyr^3-octreotide [TOC], the “sst2 internalization by positive control” value is on record as “sub-maximal internalization effect”.
